Measurements: publication PMC6245356, “A New Sesquiterpenoid Hydroquinone from the Marine Sponge Dysidea arenaria” (Molecules, 2008)

Target: HIV-1 RT (Human immunodeficiency virus type 1 group M subtype B, UniProt P04585)
Test: in vitro anti-HIV activity: inhibition of HIV-1 RT
Type: biochemical
Settings: for activity against HIV-1 RT (result in words) / IC50: in vitro; for activity against HIV-1 RT (result in words): same biological target as the IC50 values

| SMILES | activity against HIV-1 RT (result in words) | IC50 [µM] | also measured |
| --- | --- | --- | --- |
| C=C1CCC[C@H]2[C@](CO)(Cc3cc(C(=O)OC)c(O)c(OC)c3O)[C@@H](C)CC[C@]12C [Compound 1, 19-hydroxy-polyfibrospongol B] | inactive |  |  |
| C=C1CCC[C@H]2[C@](CO)(Cc3cc(C(=O)OC)cc(OC)c3O)[C@@H](C)CC[C@]12C [Compound 2, polyfibrospongol B] | inactive |  |  |
| C=C1CCC[C@H]2[C@](C)(CC3=C(O)C(=O)C=C(OC)C3=O)[C@@H](C)CC[C@]12C [Compound 3, isosemnonorthoquinone] |  | 240 |  |
| C=C1CCC[C@H]2[C@](C)(CC3=C(O)C(=O)C=C(N)C3=O)[C@@H](C)CC[C@]12C [Compound 5, smenospongine] |  | 176 |  |
| C=C1CCC[C@H]2[C@](C)(CC(=O)C3=C(OC)C(O)OC3=O)[C@@H](C)CC[C@]12C (stereo partly drawn) [Compound 6, smenotronic acid] |  | 130 |  |
| O=C(O)P(=O)(O)O [PFA, reference compound] |  |  | inhibition ratio of HIV-1 RT (at 0.05 µM, positive control): 85% |
